From patent publication US10961202B2, “Bis-benzimidazole compounds and methods of using the same” (THE SCRIPPS RESEARCH INSTITUTE, priority 2017, dated 2021)

System: r(CUG)12-MBNL1 complex
Test: Inhibition of the r(CUG)12-MBNL1 complex measured by TR-FRET
Format: biochemical
Details: Table L; 80 nM RNA, 60 nM MBNL1-His6

`CN(C)CCNCc1ccc2nc(-c3ccc(-c4nc5ccc(CNCCN(C)C)cc5[nH]4)cc3)[nH]c2c1` [Compound 61] and `CON(C)Cc1ccc2nc(-c3ccc(-c4nc5ccc(CNCCN(C)C)cc5[nH]4)cc3)[nH]c2c1` [Compound 62] cannot be ordered by IC50: greater than 200 µM for the first, greater than 200 µM for the second.

Compared with `CN(C)CC(=O)Nc1ccc2nc(-c3ccc(-c4nc5ccc(NC(=O)CN(C)C)cc5[nH]4)cc3)[nH]c2c1` [Compound 63], `CN(C)NC(=O)Nc1ccc2nc(-c3ccc(-c4nc5ccc(NC(=O)NN(C)C)cc5[nH]4)cc3)[nH]c2c1` [Compound 66, N,N′-(2,2′-(1,4-phenylene)bis(1H-benzo[d]imidazole-6,2-diyl))bis(2,2-dimethylhydrazinecarboxamide)] is higher in IC50: 10.7 µM for the first, greater than 200 µM for the second.

Going from `CN(C)CCNC(=O)Nc1ccc2nc(-c3ccc(-c4nc5ccc(NC(=O)NCCN(C)C)cc5[nH]4)cc3)[nH]c2c1` [Compound 64] to `CN(C)CCN(C)C(=O)c1ccc2nc(-c3ccc(-c4nc5ccc(C(=O)N(C)CCN(C)C)cc5[nH]4)cc3)[nH]c2c1` [Compound 68], the IC50 rises from 27 µM to greater than 200 µM.

First: CN(C)NC(=O)c1ccc2nc(-c3ccc(-c4nc5ccc(C(=O)NN(C)C)cc5[nH]4)cc3)[nH]c2c1 [Compound 67]
Second: C#CCCCCN(C)CCNC(=O)c1ccc2nc(-c3ccc(-c4nc5ccc(C(=O)NCCN(C)C)cc5[nH]4)cc3)[nH]c2c1 [Compound 73]
The IC50 of the first is higher: greater than 200 µM for the first, 9.5 µM for the second.

Going from `COC(=O)CCC(=O)NCCN(C)CCNC(=O)c1ccc2nc(-c3ccc(-c4nc5ccc(C(=O)NCCN(C)C)cc5[nH]4)cc3)[nH]c2c1` [Compound 72] to `CN(C)CCNC(=O)c1ccc2nc(-c3ccc(-c4nc5ccc(C(=O)NCCN(C)CCCCc6cn(CCCN)nn6)cc5[nH]4)cc3)[nH]c2c1` [Compound 74], the IC50 falls from 52.1 µM to 6.7 µM (7.8-fold).

First: c1cc2nc(-c3ccc(-c4nc5ccc(NC6=NCCN6C6=NCCN6)cc5[nH]4)cc3)[nH]c2cc1NC1=NCCN1 [Compound 76]
Second: N=C(N)Nc1ccc2nc(-c3ccc(-c4ccc(-c5nc6ccc(NC(=N)N)cc6[nH]5)cc4)cc3)[nH]c2c1 [Compound 81]
The IC50 of the first is 2.4-fold higher: 14.5 µM for the first, 6.1 µM for the second. The second is the more potent here.

Going from `CN(C)CCNC(=O)c1ccc2nc(-c3ccc(-c4nc5ccc(C(=O)NCCN(C)C)cc5[nH]4)c(Br)c3)[nH]c2c1` [Compound 78] to `CNCCNC(=O)c1ccc(-c2nc3cc(-c4ccc5[nH]c(-c6ccc(C(=O)NCCN(C)C)cc6)nc5c4)ccc3[nH]2)cc1` [Compound 110, N-(2-(dimethylamino)ethyl)-4-(2′-(4-((2-(methylamino)ethyl)carbamoyl)phenyl)-1H,1′H-[5,5′-bibenzo[d]imidazol]-2-yl)benzamide], the IC50 falls from greater than 200 µM to 6.9 µM. The second is the more potent here.

Going from `O=[N+]([O-])c1ccc2nc(-c3ccc(-c4ccc(-c5nc6ccc([N+](=O)[O-])cc6[nH]5)cc4)cc3)[nH]c2c1` [Compound 79] to `O=[N+]([O-])c1ccc(-c2nc3cc(-c4ccc5[nH]c(-c6ccc([N+](=O)[O-])cc6)nc5c4)ccc3[nH]2)cc1` [Compound 94], the IC50 rises from 43.9 µM to greater than 200 µM.

Going from `Nc1ccc2nc(-c3ccc(-c4ccc(-c5nc6ccc(N)cc6[nH]5)cc4)cc3)[nH]c2c1` [Compound 80] to `Nc1ccc(-c2nc3cc(-c4ccc5[nH]c(-c6ccc(N)cc6)nc5c4)ccc3[nH]2)cc1` [Compound 95, 4,4′-(1H,1′H-[5,5′-bibenzo[d]imidazole]-2,2′-diyl)dianiline], the IC50 rises from 31.3 µM to 106 µM (3.4-fold).

`Cn1c(-c2ccc(-c3nc4ccccc4n3C)cc2)nc2ccccc21` [Compound 82] and `Cn1c(-c2ccc(-c3nc4cc(N)ccc4n3C)cc2)nc2cc(N)ccc21` [Compound 83, 2,2′-(1,4-phenylene)bis(1-methyl-1H-benzo[d]imidazol-5-amine)] cannot be ordered by IC50: greater than 200 µM for the first, greater than 200 µM for the second.

`Cn1c(-c2ccc(-c3nc4ccc(N)cc4n3C)cc2)nc2cc(N)ccc21` [Compound 84, 2-[4-(6-amino-1-methyl-1H-benzimidazol-2-yl)phenyl]-1-methyl-1H-benzimidazol-5-amine] and `Cn1c(-c2ccc(-c3nc4ccc(N)cc4n3C)cc2)nc2ccc(N)cc21` [Compound 85, 2,2′-(1,4-phenylene)bis(1-methyl-1H-benzimidazol-6-amine)] cannot be ordered by IC50: greater than 200 µM for the first, greater than 200 µM for the second.

`Cn1c(-c2ccc(-c3nc4ccc(NC(=N)N)cc4n3C)cc2)nc2cc(NC(=N)N)ccc21` [Compound 87] and `Cn1c(-c2ccc(-c3nc4ccc(NC(=N)N)cc4n3C)cc2)nc2ccc(NC(=N)N)cc21` [Compound 88] cannot be ordered by IC50: greater than 200 µM for the first, greater than 200 µM for the second.

`Cn1c(-c2ccc(-c3nc4cc(Br)ccc4n3C)cc2)nc2cc(Br)ccc21` [Compound 89, 1,4-bis(5-bromo-1-methyl-1H-benzo[d]imidazol-2-yl)benzene] and `Cn1c(-c2ccc(-c3nc4ccc(Br)cc4n3C)cc2)nc2ccc(Br)cc21` [Compound 90, 1,4-bis(6-bromo-1-methyl-1H-benzo[d]imidazol-2-yl)benzene] cannot be ordered by IC50: greater than 200 µM for the first, greater than 200 µM for the second.

Going from `N=C(N)Nc1ccc(-c2nc3cc(-c4ccc5[nH]c(-c6ccc(NC(=N)N)cc6)nc5c4)ccc3[nH]2)cc1` [Compound 96] to `NC(=O)Nc1ccc(-c2nc3cc(-c4ccc5[nH]c(-c6ccc(NC(N)=O)cc6)nc5c4)ccc3[nH]2)cc1` [Compound 97], the IC50 rises from 4.6 µM to 71 µM (15-fold). The first is the more potent here.

Compared with `N=C(NO)c1ccc(-c2nc3cc(-c4ccc5[nH]c(-c6ccc(C(=N)NO)cc6)nc5c4)ccc3[nH]2)cc1` [Compound 98], `N=C(N)c1ccc(-c2nc3cc(-c4ccc5[nH]c(-c6ccc(C(=N)N)cc6)nc5c4)ccc3[nH]2)cc1` [Compound 99] is 9.5-fold lower in IC50: 144 µM for the first, 15.2 µM for the second.

Compared with `N#Cc1ccc(-c2nc3cc(-c4ccc5[nH]c(-c6ccc(C#N)cc6)nc5c4)ccc3[nH]2)cc1` [Compound 100], `Brc1ccc(-c2nc3cc(-c4ccc5[nH]c(-c6ccc(Br)cc6)nc5c4)ccc3[nH]2)cc1` [Compound 104] is higher in IC50: 6.2 µM for the first, greater than 200 µM for the second.

`NC(=O)c1ccc(-c2nc3cc(-c4ccc5[nH]c(-c6ccc(C(N)=O)cc6)nc5c4)ccc3[nH]2)cc1` [Compound 101] and `Oc1ccc(-c2nc3cc(-c4ccc5[nH]c(-c6ccc(O)cc6)nc5c4)ccc3[nH]2)cc1` [Compound 105] cannot be ordered by IC50: greater than 200 µM for the first, greater than 200 µM for the second.

First: COc1ccc(-c2nc3cc(-c4ccc5[nH]c(-c6ccc(OC)cc6)nc5c4)ccc3[nH]2)cc1 [Compound 106]
Second: CN(C)CCNC(=O)c1ccc(-c2nc3cc(-c4ccc5[nH]c(-c6ccc(C#N)cc6)nc5c4)ccc3[nH]2)cc1 [Compound 109]
The IC50 of the first is higher: greater than 200 µM for the first, 15 µM for the second. The second is the more potent here.

First: c1cn(-c2ccc(-c3nc4cc(-c5ccc6[nH]c(-c7ccc(-n8ccnc8)cc7)nc6c5)ccc4[nH]3)cc2)cn1 [Compound 107]
Second: CNCCNC(=O)c1ccc(-c2nc3cc(-c4ccc5[nH]c(-c6ccc(C(=O)NCCNC)cc6)nc5c4)ccc3[nH]2)cc1 [Compound 111, 4,4′-(1H,1′H-[5,5′-bibenzo[d]imidazole]-2,2′-diyl)bis(N-(2-(methylamino)ethyl)benzamide)]
The IC50 of the first is higher: greater than 200 µM for the first, 6.9 µM for the second.

`C#CCCCCN(C)CCNC(=O)c1ccc(-c2nc3cc(-c4ccc5[nH]c(-c6ccc(C(=O)NCCN(C)C)cc6)nc5c4)ccc3[nH]2)cc1` [Compound 114, N-(2-(dimethylamino)ethyl)-4-(2′-(4-((2-(hex-5-yn-1-yl(methyl)amino)ethyl)carbamoyl)phenyl)-1H,1′H-[5,5′-bibenzo[d]imidazol]-2-yl)benzamide] and `CN1CCN(CCNC(=O)c2ccc(-c3nc4cc(-c5ccc6[nH]c(-c7ccc(C(=O)NCCN8CCN(C)CC8)cc7)nc6c5)ccc4[nH]3)cc2)CC1` [Compound 117] are within 1.5-fold of each other in IC50: 9.5 µM for the first, 8.9 µM for the second.
